Legend:
Adrenergic receptor beta [1] = molecular target: Adrenergic receptor beta (Homo sapiens, UniProt P08588+P07550+P13945); assay: Beta-adrenergic agonistic activity in guinea-pig atrium preincubated with phenoxybenzamine (12 uM) for 30 min; assay type: functional, tissue-based, Cavia porcellus, Cardiac atrium; details: target entry is the homologue from another species
Adrenergic receptor beta [2] = molecular target: T1, Adrenergic receptor beta (Rattus norvegicus, UniProt P18090+P10608+P26255); assay: Beta-adrenergic agonistic activity in rat uterus preincubated with phenoxybenzamine (12 uM) for 30 min; assay type: functional, tissue-based
Adrenergic receptor beta [3] = molecular target: T1, Adrenergic receptor beta; assay: Beta-adrenergic agonistic activity in rat proximal colon; assay type: functional
Adrenergic receptor beta [4] = molecular target: T1, Adrenergic receptor beta; assay: Beta-adrenergic agonistic activity in rat proximal colon in presence of phentolamine (10 uM), desmethylimipramine (0.5 uM) and hydrocortisone (30 uM); assay type: functional, tissue-based

Compound	EC50 (Adrenergic receptor beta [1]) [µM]	IC50 (Adrenergic receptor beta [2]) [µM]	IC50 (Adrenergic receptor beta [3]) [µM]	IC50 (Adrenergic receptor beta [4]) [µM]
CCOC(=O)c1ccc2c(c1)CC(NCC(O)c1cccc(Cl)c1)CC2.Cl (stereo not drawn)	> 30	0.185	0.09	–
CCOC(=O)CCc1ccc2c(c1)C[C@H](NC[C@H](O)c1cccc(Cl)c1)CC2.Cl	> 30	0.48	–	0.0009
CCOC(=O)CCc1ccc2c(c1)CC(NCC(O)c1cccc(Cl)c1)CC2.Cl (stereo not drawn)	> 30	0.35	0.021	–
CCOC(=O)CCc1ccc2c(c1)C[C@@H](NC[C@H](O)c1cccc(Cl)c1)CC2.Cl	> 30	0.319	–	0.00109

The remaining lines, values ahead:

EC50 (Adrenergic receptor beta [1]) [µM]	IC50 (Adrenergic receptor beta [2]) [µM]	IC50 (Adrenergic receptor beta [3]) [µM]	IC50 (Adrenergic receptor beta [4]) [µM]	Compound
> 30	1.2	0.047	–	CCOC(=O)COc1ccc2c(c1)C[C@@H](NC[C@H](O)c1cccc(Cl)c1)CC2.Cl (mixture of isomers) [AMIBEGRON HYDROCHLORIDE]
> 30	0.499	–	0.0035	CCOC(=O)COc1ccc2c(c1)C[C@@H](NC[C@H](O)c1cccc(Cl)c1)CC2.Cl [AMIBEGRON HYDROCHLORIDE]
